Measurements published in patent US8207150B2, “17β-cyano-19-nor-androst-4-ene derivative, its use and medicaments comprising the derivative” (Bayer Pharma AG, priority 2007, dated 2012).
Several values for one entry are separate records, joined by “and”; a condition that tells them apart may be missing. Equal entries are not always repeated. Where two headings read alike, the source gives them in different places.

Columns and labels:
[1] = biological target: T1, mineralcorticoid receptor (Homo sapiens, UniProt P08235); experiment: MR antagonism, luciferase reporter cell line assay; format: cell-based; details: 16 hours incubation, luminescence
T1 sequence (P08235 1-984): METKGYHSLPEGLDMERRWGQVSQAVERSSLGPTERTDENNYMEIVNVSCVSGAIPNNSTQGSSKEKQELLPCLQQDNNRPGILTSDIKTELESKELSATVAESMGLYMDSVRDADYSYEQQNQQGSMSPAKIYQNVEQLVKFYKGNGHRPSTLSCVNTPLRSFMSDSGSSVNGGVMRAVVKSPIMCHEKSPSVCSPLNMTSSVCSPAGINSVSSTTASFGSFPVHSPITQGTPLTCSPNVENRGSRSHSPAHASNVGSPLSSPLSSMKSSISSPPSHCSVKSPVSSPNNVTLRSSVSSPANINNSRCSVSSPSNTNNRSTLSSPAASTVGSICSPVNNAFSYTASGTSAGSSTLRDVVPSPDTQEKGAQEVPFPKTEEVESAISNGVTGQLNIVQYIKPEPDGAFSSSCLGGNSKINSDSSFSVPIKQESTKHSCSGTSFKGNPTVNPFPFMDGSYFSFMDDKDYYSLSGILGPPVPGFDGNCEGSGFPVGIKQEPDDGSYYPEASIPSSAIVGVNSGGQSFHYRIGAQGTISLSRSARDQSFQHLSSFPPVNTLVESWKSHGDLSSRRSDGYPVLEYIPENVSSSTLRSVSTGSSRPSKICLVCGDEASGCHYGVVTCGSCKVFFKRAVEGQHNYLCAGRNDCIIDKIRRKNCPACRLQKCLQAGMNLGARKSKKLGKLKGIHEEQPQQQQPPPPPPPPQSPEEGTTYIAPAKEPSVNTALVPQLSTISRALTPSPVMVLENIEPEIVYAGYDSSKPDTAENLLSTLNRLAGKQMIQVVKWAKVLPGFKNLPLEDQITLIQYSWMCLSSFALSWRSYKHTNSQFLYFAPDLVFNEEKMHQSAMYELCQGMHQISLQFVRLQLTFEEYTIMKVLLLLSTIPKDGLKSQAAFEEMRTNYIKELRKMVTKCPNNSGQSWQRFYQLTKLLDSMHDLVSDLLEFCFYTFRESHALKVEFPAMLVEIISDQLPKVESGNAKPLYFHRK
Method: The derivatives according to the invention having the general chemical formula 1 have a very strong gestagenic activity. […] They should therefore have in vivo potassium-retaining, natriuretic (antimeralcorticoid) action. These properties were determined using the test described below:
For the culturing of the cells used for the assay, the culture medium used was DMEM (Dulbecco's Modified Eagle Medium: […] of glucose; PAA, #E15-009) with 10% FCS (Biochrom, S0115, batch #615B), 4 mM L-glutamine, 1% penicillin/streptomycin, 1 mg/ml of G418 and 0.5 μg/ml of puromycin.
Reporter cell lines were grown in a density of 4×10^4 cells per hollow in white, nontransparent tissue culture plates in each case having 96 hollows (PerkinElmer, #P12-106-017) and kept in 6% DCC—FCS (activated carbon-treated serum, for the removal of interfering components contained in the serum). The compounds to be investigated were added eight days later, and the cells were incubated with the compounds for 16 hours. The experiments were carried out in triplicate. At the end of the incubation, the effector-containing medium was removed and replaced by lysis buffer. After luciferase assay substrate (promega, #E1501) had been added, the plates containing the 96 hollows were then introduced into a microplate luminometer (Pherastar, BMG labtech), and the luminescence was measured. The IC50 values were evaluated using software for the calculation of dose-activity relationships.

PR = biological target: T2, PR (Rattus norvegicus, UniProt Q63449); experiment: maintenance of pregnancy test on the rat; format: in vivo; details: ovarectomized pregnant rats; for PR in vivo ED50: pregnancy-maintaining dose, s.c. once daily with oestrone 5 μg/kg/day
T2 construct: The maintenance of pregnancy test on ovarectomized rats serves for the determination of the peripheral gestagenic activity of a compound; from tissue; host or cells: whole animal: pregnant, ovariectomized rats
T2 sequence (Q63449 1-923): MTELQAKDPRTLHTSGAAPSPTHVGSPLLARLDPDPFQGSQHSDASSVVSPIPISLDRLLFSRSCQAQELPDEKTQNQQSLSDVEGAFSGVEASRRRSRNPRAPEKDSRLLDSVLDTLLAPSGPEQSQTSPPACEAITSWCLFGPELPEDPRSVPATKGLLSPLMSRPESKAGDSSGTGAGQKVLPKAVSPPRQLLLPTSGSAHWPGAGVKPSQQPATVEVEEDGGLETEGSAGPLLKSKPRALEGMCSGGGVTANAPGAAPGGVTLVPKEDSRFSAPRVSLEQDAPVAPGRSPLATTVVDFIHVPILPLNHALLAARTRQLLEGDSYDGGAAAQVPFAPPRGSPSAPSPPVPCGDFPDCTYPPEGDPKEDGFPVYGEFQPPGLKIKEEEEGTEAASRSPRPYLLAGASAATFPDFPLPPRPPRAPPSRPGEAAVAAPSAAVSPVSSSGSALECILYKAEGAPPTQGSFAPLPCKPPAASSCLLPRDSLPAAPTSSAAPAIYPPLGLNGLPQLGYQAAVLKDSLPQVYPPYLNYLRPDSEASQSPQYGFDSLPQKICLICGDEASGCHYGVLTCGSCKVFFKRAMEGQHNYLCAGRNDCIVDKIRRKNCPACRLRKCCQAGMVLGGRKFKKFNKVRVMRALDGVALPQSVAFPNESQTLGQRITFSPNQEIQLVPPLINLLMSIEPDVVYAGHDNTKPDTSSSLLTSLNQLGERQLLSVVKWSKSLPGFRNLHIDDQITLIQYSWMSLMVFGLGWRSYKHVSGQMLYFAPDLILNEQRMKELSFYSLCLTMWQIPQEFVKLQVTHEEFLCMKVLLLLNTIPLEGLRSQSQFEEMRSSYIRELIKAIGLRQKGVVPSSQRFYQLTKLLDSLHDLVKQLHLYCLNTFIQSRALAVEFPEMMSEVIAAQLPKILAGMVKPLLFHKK
Description: Carrying out the maintenance of pregnancy test on the rat:
In pregnant rats, the removal of the corpora lutea or oophorectomy induces an abortion. By means of the exogenous administration of progestins (gestagens) in combination with a suitable dose of an oestrogen, the maintenance of pregnancy is possible. The maintenance of pregnancy test on ovarectomized rats serves for the determination of the peripheral gestagenic activity of a compound.
Rats were paired overnight during proestrus. Pairing was checked on the morning of the following day by the appraisal of a vaginal smear. The presence of the sperm was evaluated here as day 1 of a commencing pregnancy. On day 8 of the pregnancy, the animals were ovarectomized under ether anaesthesia. The treatment with test compound and exogenous oestrogen (oestrone, 5 μg/kg/day) was carried out subcutaneously once daily from day 8 to day 15 or day 21 of the pregnancy. The first administration on day 8 was carried out two hours before oophorectomy. Intact control animals were given exclusively vehicle.
At the end of the experiment (day 15 or day 21), the animals were sacrificed under a CO2 atmosphere, and live foetuses (foetuses having a beating heart) and implantation sites (early resorptions and dead foetuses including autolysis and atrophic placentas) were counted in both uterine horns. On day 22, it was moreover possible to examine foetuses for malformations. In uteri without foetuses or implantation sites, the number of nidation sites was determined by staining with 10% strength ammonium sulphide solution. The maintenance of pregnancy rate was calculated as the quotient of the number of living foetuses and the total number of nidation sites (both resorbed and dead foetuses and nidation sites). For drospirenone, this value is 3.5 mg/kg/day.

[2] = reporter cell lines, read-out: MR Antagonism IC50
[3] = MR Antagonism IC50, reporter cell lines

C[C@]1(C#N)[C@H]2C[C@H]2[C@H]2[C@@H]3CCC4=CC(=O)CC[C@@H]4[C@H]3CC[C@@]21C [17β-Cyano-17α-methyl-15β,16β-methylene-19-nor-androst-4-en-3-one]
MR Antagonism activity [% of the maximum effect] ([1]; reporter cell lines): 96.00 % of the maximum effect
IC50 [1, 2]: 29 nM
PR in vivo ED50 (PR): 0.8 mg/kg/d s.c.

C[C@]1(C#N)[C@H]2C[C@H]2[C@H]2[C@@H]3C=CC4=CC(=O)CC[C@@H]4[C@H]3CC[C@@]21C [17β-Cyano-17α-methyl-15β,16β-methylene-19-nor-androsta-4,6-dien-3-one]
MR Antagonism activity [% of the maximum effect] ([1]; reporter cell lines): 114 % of the maximum effect
IC50 [1, 2]: 190 nM
PR in vivo ED50 (PR): 2.1 mg/kg/d s.c.

C[C@]12CCC(=O)C=C1[C@@H]1C[C@@H]1[C@H]1[C@@H]3[C@@H]4C[C@@H]4[C@@]4(CCC(=O)O4)[C@@]3(C)CC[C@@H]12 [drospirenone, 6β,7β-15β,16β-dimethylene-3-oxo-17-pregn-4-ene-21,17β-carbolactone, reference compound]
pregnancy-maintaining dose (ED50) (PR; subcutaneously once daily with oestrone 5 μg/kg/day): 3.5 mg/kg/day

CC[C@]1(C#N)[C@H]2C[C@H]2[C@H]2[C@@H]3CCC4=CC(=O)CC[C@@H]4[C@H]3CC[C@@]21C [17β-Cyano-17α-ethyl-15β,16β-methylene-19-nor-androst-4-en-3-one]
MR Antagonism activity [% of the maximum effect] ([1]; reporter cell lines): 106.4 % of the maximum effect
IC50 [1, 2]: 440 nM
PR in vivo ED50 (PR): 1.9 mg/kg/d s.c.

CC[C@]1(C#N)[C@H]2C[C@H]2[C@H]2[C@@H]3[C@@H]4C[C@@H]4C4=CC(=O)CC[C@@H]4[C@H]3CC[C@@]21C (single isomer, unassigned) [17β-cyano-17α-ethyl-6α,7α-methylene-15β,16β-methylene-19-nor-androst-4-en-3-one]
IC50 [1, 3]: 90.2 nM
PR in vivo ED50 (PR): 0.22 mg/kg/d s.c.

C[C@]12CC[C@H]3[C@@H](CCC4=CC(=O)CC[C@@H]43)[C@@H]1[C@@H]1C[C@@H]1[C@@H]2C#N [17β-Cyano-15β,16β-methylene-19-nor-androst-4-en-3-one]
MR Antagonism activity [% of the maximum effect] ([1]; reporter cell lines): 95.57 % of the maximum effect
IC50 [1, 2]: 4.5 nM
PR in vivo ED50 (PR): 0.84 mg/kg/d s.c.

C[C@@H]1CC2=CC(=O)CC[C@@H]2[C@H]2CC[C@@]3(C)[C@@H]([C@@H]4C[C@@H]4[C@@H]3C#N)[C@@H]21 (single isomer, unassigned) [17β-Cyano-15β,16β-methylene-7α-methyl-19-nor-androst-4-en-3-one]
IC50 [1, 3]: 8.3 nM and 10.3 nM

C[C@@H]1CC2=CC(=O)CC[C@@H]2[C@H]2CC[C@]3(C)[C@@H](C#N)CC[C@H]3[C@@H]21 [17β-Cyano-7α-methyl-19-nor-androst-4-en-3-one]
MR Antagonism activity [% of the maximum effect] ([1]; reporter cell lines): 108.02 % of the maximum effect
IC50 [1, 2]: 8.2 nM
PR in vivo ED50 (PR): 0.33 mg/kg/d s.c.

C[C@@H]1CC2=CC(=O)CC[C@@H]2[C@H]2CC[C@@]3(C)[C@@H](CC[C@]3(C)C#N)[C@@H]21 [17β-Cyano-7α,17α-bismethyl-19-nor-androst-4-en-3-one]
IC50 [1, 3]: 31 nM
MR Antagonism activity [% of the maximum effect] ([1]; reporter cell lines): 96.20 % of the maximum effect
PR in vivo ED50 (PR): 1 .0 mg/kg/d s.c.

C[C@]12CC[C@H]3[C@@H](CCC4=CC(=O)CC[C@@H]43)[C@@H]1[C@H]1C[C@H]1[C@@H]2C#N [17β-Cyano-15α,16α-methylene-19-nor-androst-4-en-3-one]
MR Antagonism activity [% of the maximum effect] ([1]; reporter cell lines): 93.01 % of the maximum effect
IC50 [1, 2]: 16 nM
PR in vivo ED50 (PR): 0.8 mg/kg/d s.c.

C[C@]12CC[C@H]3[C@@H](C=CC4=CC(=O)CC[C@@H]43)[C@@H]1[C@@H]1C[C@@H]1[C@@H]2C#N [17β-Cyano-15β,16β-methylene-19-nor-androsta-4,6-dien-3-one]
MR Antagonism activity [% of the maximum effect] ([1]; reporter cell lines): 108.51 % of the maximum effect
IC50 [1, 2]: 15 nM
PR in vivo ED50 (PR): 3.3 mg/kg/d s.c.
